Data from paper PMC7431030 (Nature, 2020).
Entries after “also recorded” stand apart in the source; their conditions may differ. Square brackets hold non-standard residues; d marks the D form. Peptide text beside a SMILES is read from it. NMeTrp(1-(4-Br-benzyl)) = CN[C@@H](Cc1cn(Cc2ccc(Br)cc2)c2ccccc12)C(=O)O; Butanoyl(2R-oxy,4-CN) = N#CCC[C@@H](O)C(=O)O; NMeL = CN[C@@H](CC(C)C)C(=O)O; NMeA = CN[C@@H](C)C(=O)O

Columns and labels:
[1] = test system: SIGMAR2/TMEM97; conditions: annotated activity, Extended Data Fig. 10b; cited from earlier work
[2] = test system: SARS-CoV-2; type: cell-based
[3] = test system: SARS-CoV-2; type: cell-based; remark: listed apart in the source
[4] = test system: SARS-CoV-2; type: cell-based; conditions: Vero E6 cells
[5] = test system: viral replication; conditions: cited from earlier work
[6] = test system: SIGMAR1; conditions: Extended Data Fig. 10b, cited from earlier work

Cc1cc(OCCN2CCOCC2)nn1-c1ccc2ccccc2c1 [E-52862]
binding at SIGMAR2/TMEM97, reported [1]: greater than 1 μM

COc1cccc2c1CCCC2CCCN1CCN(C2CCCCC2)CC1 (stereo not shown) [PB28]
times more potent than hydroxychloroquine [2]: ~ 20 times
detection of the viral NP protein (in words) [3]: decreased the detection of the viral NP protein
antiviral activity / viral infectivity (in words) [4]: effectively reducing viral infectivity

CCCN1CCC=C(c2cc(-c3ccc(C)cc3)no2)C1.O=C(O)C(=O)O [PD-144418]
antiviral activity / viral infectivity (in words) [4]: effectively reducing viral infectivity

CC(C)C[C@@H]1NC(=O)[C@H](Cc2cn(Cc3ccc(Br)cc3)c3ccccc23)N(C)C(=O)[C@H](CC(C)C)NC(=O)[C@H](CC(C)C)N(C)C(=O)[C@H](CC(C)C)NC(=O)[C@@H](CCC#N)OC(=O)[C@H](C)N(C)C1=O [PS3061] (cyclo(L[NMeA][Butanoyl(2R-oxy,4-CN)]L[NMeL]L[NMeTrp(1-(4-Br-benzyl))]))
antiviral activity / viral infectivity (in words) [4]: effectively reducing viral infectivity; also recorded: blocked SARS-CoV-2 replication

CCCCc1oc2ccccc2c1C(=O)c1cc(I)c(OCCN(CC)CC)c(I)c1 [amiodarone]
activity in viral replication assays reported by others (in words) [5]: active in viral replication assays

COc1ccc(CCN2CCC(Nc3nc4ccccc4n3Cc3ccc(F)cc3)CC2)cc1 [astemizole]
activity in viral replication assays reported by others (in words) [5]: active in viral replication assays

Clc1ccc(C(OCCN2CCCCC2)c2ccccc2)cc1 (stereo not shown) [cloperastine]
antiviral activity / viral infectivity (in words) [4]: antiviral activity

COc1ccc2c(c1)[C@]13CCCC[C@@H]1[C@H](C2)N(C)CC3 [dextromethorphan]
viral titers (TCID50), effect in words [2]: increases viral titers
antiviral activity / viral infectivity (in words) [4]: pro-viral activity

O=C(CCCN1CCC(O)(c2ccc(Cl)cc2)CC1)c1ccc(F)cc1 [haloperidol, Haloperidol]
antiviral activity / viral infectivity (in words) [4]: effectively reducing viral infectivity; also recorded: antiviral activity

CCN(CCO)CCCC(C)Nc1ccnc2cc(Cl)ccc12 (stereo not shown) [hydroxychloroquine]
detection of the viral NP protein (in words) [3]: decreased the detection of the viral NP protein
antiviral activity / viral infectivity (in words) [4]: effectively reducing viral infectivity

Cc1cc2c(s1)Nc1ccccc1N=C2N1CCN(C)CC1 [olanzapine]
antiviral activity / viral infectivity (in words) [4]: not antiviral
Sigma receptor activity (in words) [6]: little Sigma receptor activity
activity at SIGMAR1, reported ([6]; annotated activity): greater than 5 μM

CC(=O)[C@H]1CC[C@H]2[C@@H]3CCC4=CC(=O)CC[C@]4(C)[C@H]3CC[C@]12C [progesterone]
antiviral activity / viral infectivity (in words) [4]: antiviral

Fc1ccc(-n2cc(CCCCN3CCC4(CC3)OCc3ccccc34)c3ccccc32)cc1 [siramesine]
antiviral activity / viral infectivity (in words) [4]: antiviral

COc1ccc(CCN(C)CCCC(C#N)(c2ccc(OC)c(OC)c2)C(C)C)cc1OC (stereo not shown) [verapamil]
activity in viral replication assays reported by others (in words) [5]: active in viral replication assays

COc1cc2c(c(OC)n1)[C@]1(O)[C@H](O)[C@H](CN(C)C)[C@@H](c3ccccc3)[C@]1(c1ccc(C#N)cc1)O2 [zotatifin]
detection of the viral NP protein (in words) [3]: decreased the detection of the viral NP protein
antiviral activity / viral infectivity (in words) [4]: reduce viral infectivity in a concentration-dependent matter; also recorded: effectively reducing viral infectivity; also recorded: strong antiviral effect
